Assay type in all cases: ADME, organism-based
Data set [1] can be described thus: AUC (0 to 6 hrs) in Sprague-Dawley rat at 10 mg/kg, po. On the set-up: time < 6 hr, dose 10 mg/kg, route oral. Conditions: plasma.
Data set [2] in a line: Tmax in Sprague-Dawley rat at 10 mg/kg, po. Further details: dose 10 mg/kg, route oral. Conditions: in vivo.
Data set [3] is described as follows: Cmax in Sprague-Dawley rat at 10 mg/kg, po. Further details: dose 10 mg/kg, route oral. Conditions: in vivo.
Data set [4] in a line: AUC (0 to infinity) in Sprague-Dawley rat at 10 mg/kg, po. Conditions: plasma. Further details: time infinity, dose 10 mg/kg, route oral.
The nature of data set [5]: AUC (0 to infinity) in Sprague-Dawley rat at 5 mg/kg, iv. Conditions: plasma. On the set-up: time infinity, dose 5 mg/kg, route intravenous.
Data set [6] in a line: Oral bioavailability in Sprague-Dawley rat at 10 mg/kg. To be noted: in vivo.
Data set [7] is described as follows: Volume of distribution at steady state in Sprague-Dawley rat at 10 mg/kg, po and 5 mg/kg, iv. To be noted: in vivo, read-out: Vdss.

`N#Cc1c(-c2ccc(S(=O)(=O)NC(CF)CF)cn2)n(C2CCC2)c2cc(C3CC3)ccc12`: in data set [1], the AUC(0-t) at 6 h was determined as 6.2 µM·h. In addition, the Tmax in data set [2] came out at 2 h. The molecule also returned a Cmax in data set [3] of 759 ng/mL.
In the same order, the values of `CC(C)NS(=O)(=O)c1ccc(-c2c(C#N)c3ccc(OC(F)F)cc3n2C2CCC2)nc1` are 0.579 µM·h, 2 h and 53 ng/mL.
In the same order, the values of `CC(C)NS(=O)(=O)c1ccc(-c2c(C#N)c3ccc(C4CC4)cc3n2C2CCC2)nc1` are 0.964 µM·h, 2 h and 87 ng/mL.
Regarding `N#Cc1c(-c2ccc(S(=O)(=O)NC(CF)CF)cn2)n(C2CCC2)c2cc(OC(F)F)ccc12`, the AUC(0-inf) in data set [4] was 16 µM·h; in data set [5], 13 µM·h. The same molecule had an AUC(0-t) at 6 h in data set [1] of 3.42 µM·h. For the same molecule, the bioavailability in data set [6] was 62%. The Tmax in data set [2] is 3 h. For the same molecule, in data set [7], the Vd came out at 4.7 L/kg. Moreover, in data set [3], the concentration peaked (Cmax) at 348 ng/mL.

The record behind these values is ChEMBL document CHEMBL2396606, “Discovery of novel HCV inhibitors: synthesis and biological activity of 6-(indol-2-yl)pyridine-3-sulfonamides targeting hepatitis C virus NS4B” (Bioorg Med Chem Lett, 2013).
